Test: recombinant UMI read abundance after kanamycin selection (control-corrected) (log10(CPM+1)); higher = more efficient recombination; extreme values may be limits of the assay; sequences stand for … in AGTGCAGAGAAAATCGGCCAGTTTTCTCTGCCTGCAGTCCGCATGCCGTGGGACCCCTTGGGTTCTAACCTGTTGCCTAGATTTATGCAGCGGACTGCCTTTCTCCCAAAGTGATAAACCGG…AGGTTGGTTTCACT; site = the 11-nt donor
In short: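 Reported values are log10(CPM+1) from a pooled Escherichia coli screen of donor and donor-binding-loop pairs for the IS621 bridge recombinase. Selection used IPTG (0.07 mM) plus kanamycin, against unselected plating, each in two replicates. Recombinant UMIs were amplified across the donor–target junction, sequenced, converted to CPM, averaged over replicates and scaled by control-derived factors.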
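Note: IS621 bridge recombinase in Escherichia coli cells against a fixed T5 target plasmid.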

Row | Sequence | recombinant UMI read abundance (log10)
1 | CGGGAGTCATGGACCGGTTTTCCCGGTAATCCGTATTTGGT (site CGGGAGTCTAC) | 2.11
2 | CGGGATCCATGGACCGGTTTTCCCGGTAATCCGTATTTGTA (site CGGAATCCTAA) | 0
3 | CGGGATCCATGGACCGGTTTTCCCGGTAATCCGTATTTGTA (site CGGGATCCTTA) | 1.69
4 | CGGGATTCATGGACCGGTTTTCCCGGTAATCCGTATTTGCC (site CGGGAATCTGG) | 0.816
5 | CGGGATTCATGGACCGGTTTTCCCGGTAATCCGTATTTGCC (site CGGGACTCTGG) | 2.97
6 | CGGGATTCATGGACCGGTTTTCCCGGTAATCCGTATTTGCC (site CGGGAGTCTGG) | 1.18
7 | CGGGATTCATGGACCGGTTTTCCCGGTAATCCGTATTTGCC (site CGGGATTCTGG) | 2.58
8 | CGGGATTCATGGACCGGTTTTCCCGGTAATCCGTATTTGTT (site CGGAATCCTAA) | 0
9 | CGGGATTCATGGACCGGTTTTCCCGGTAATCCGTATTTGTT (site CGGGATTCTAA) | 2.91
10 | CGGGGTACATGGACCGGTTTTCCCGGTAATCCGTATTTGTA (site CGGGGTACTTA) | 2.49
11 | CGGGGTGCATGGACCGGTTTTCCCGGTAATCCGTATTTGGT (site CGGGGTGCTAC) | 1.25
12 | CGGGTCACATGGACCGGTTTTCCCGGTAATCCGTATTTGTC (site CGGGTCACTGA) | 3.01
13 | CGGGTTCCATGGACCGGTTTTCCCGGTAATCCGTATTTGAC (site CGGGTTCCTGT) | 0.77
14 | CGGTAGTCATGGACCGGTTTTCCCGGTAATCCGTATTTGCC (site CGGAAGTCTGG) | 0.759
15 | CGGTAGTCATGGACCGGTTTTCCCGGTAATCCGTATTTGCC (site CGGCAGTCTGG) | 1.47
16 | CGGTAGTCATGGACCGGTTTTCCCGGTAATCCGTATTTGCC (site CGGGAGTCTGG) | 0
17 | CGGTAGTCATGGACCGGTTTTCCCGGTAATCCGTATTTGCC (site CGGTAGTCTGG) | 2.78
18 | CGGTATACATGGACCGGTTTTCCCGGTAATCCGTATTTGTT (site CGGAATCCTAA) | 0
19 | CGGTATACATGGACCGGTTTTCCCGGTAATCCGTATTTGTT (site CGGTATACTAA) | 1.62
20 | CGGTATCCATGGACCGGTTTTCCCGGTAATCCGTATTTGAT (site CGGAATCCTAA) | 0.00344
21 | CGGTATCCATGGACCGGTTTTCCCGGTAATCCGTATTTGAT (site CGGTATCCTAT) | 0.734
22 | CGGTATCCATGGACCGGTTTTCCCGGTAATCCGTATTTGCC (site CGGTATCCTGG) | 0
23 | CGGTCATCATGGACCGGTTTTCCCGGTAATCCGTATTTGTT (site CGATCATCTAG) | 0
24 | CGGTCATCATGGACCGGTTTTCCCGGTAATCCGTATTTGTT (site CGGTCATCTAA) | 0.27
25 | CGGTCGACATGGACCGGTTTTCCCGGTAATCCGTATTTGGA (site CGGTCGACTTC) | 0.112

Row | Sequence | recombinant UMI read abundance (log10)
26 | CGGTGCGCATGGACCGGTTTTCCCGGTAATCCGTATTTGCC (site CGGTGCGCTGG) | 1.48
27 | CGGTGTCCATGGACCGGTTTTCCCGGTAATCCGTATTTGTT (site CGGAATCCTAA) | 0.0121
28 | CGGTGTCCATGGACCGGTTTTCCCGGTAATCCGTATTTGTT (site CGGTGTCCTAA) | 0.0166
29 | CGGTTAGCATGGACCGGTTTTCCCGGTAATCCGTATTTGTG (site CAGTTAGCTCA) | 0.694
30 | CGGTTAGCATGGACCGGTTTTCCCGGTAATCCGTATTTGTG (site CCGTTAGCTCA) | 0
31 | CGGTTAGCATGGACCGGTTTTCCCGGTAATCCGTATTTGTG (site CGGTTAGCTCA) | 1.7
32 | CGGTTAGCATGGACCGGTTTTCCCGGTAATCCGTATTTGTG (site CTGTTAGCTCA) | 0.256
33 | CGTACAACATGGACCGGTTTTCCCGGTAATCCGTATTTGGT (site CGTACAACTAC) | 1.09
34 | CGTAGCGCATGGACCGGTTTTCCCGGTAATCCGTATTTGTT (site CGTAGCGCTAA) | 1.05
35 | CGTCAGACATGGACCGGTTTTCCCGGTAATCCGTATTTGAG (site CGTAAGACTCT) | 0.182
36 | CGTCAGACATGGACCGGTTTTCCCGGTAATCCGTATTTGAG (site CGTCAGACTCT) | 1.16
37 | CGTCAGACATGGACCGGTTTTCCCGGTAATCCGTATTTGAG (site CGTGAGACTCT) | 0.016
38 | CGTCAGACATGGACCGGTTTTCCCGGTAATCCGTATTTGAG (site CGTTAGACTCT) | 0.0174
39 | CGTCGACCATGGACCGGTTTTCCCGGTAATCCGTATTTGAT (site CGTCGACCTAT) | 0.0862
40 | CGTCGTACATGGACCGGTTTTCCCGGTAATCCGTATTTGCT (site CGACGTACTAG) | 0.689
41 | CGTCGTACATGGACCGGTTTTCCCGGTAATCCGTATTTGCT (site CGCCGTACTAG) | 1.22
42 | CGTCGTACATGGACCGGTTTTCCCGGTAATCCGTATTTGCT (site CGGCGTACTAG) | 0.794
43 | CGTCGTACATGGACCGGTTTTCCCGGTAATCCGTATTTGCT (site CGTCGTACTAG) | 1.76
44 | CGTCTCCCATGGACCGGTTTTCCCGGTAATCCGTATTTGAG (site CGTCTCCCTCT) | 0.0129
45 | CGTGAACCATGGACCGGTTTTCCCGGTAATCCGTATTTGAT (site CGAGAACCTAT) | 0.0201
46 | CGTGAACCATGGACCGGTTTTCCCGGTAATCCGTATTTGAT (site CGCGAACCTAT) | 0
47 | CGTGAACCATGGACCGGTTTTCCCGGTAATCCGTATTTGAT (site CGGGAACCTAT) | 0
48 | CGTGAACCATGGACCGGTTTTCCCGGTAATCCGTATTTGAT (site CGTGAACCTAT) | 0.0133
49 | CGTGACTCATGGACCGGTTTTCCCGGTAATCCGTATTTGCG (site CGTGACTCTCG) | 2.74
50 | CGTGACTCATGGACCGGTTTTCCCGGTAATCCGTATTTGTA (site CGTGACTCTTA) | 3.02

Row | Sequence | recombinant UMI read abundance (log10)
51 | CGTGAGTCATGGACCGGTTTTCCCGGTAATCCGTATTTGCC (site CGAGAGTCTGG) | 1.79
52 | CGTGAGTCATGGACCGGTTTTCCCGGTAATCCGTATTTGCC (site CGCGAGTCTGG) | 0
53 | CGTGAGTCATGGACCGGTTTTCCCGGTAATCCGTATTTGCC (site CGGGAGTCTGG) | 0.694
54 | CGTGAGTCATGGACCGGTTTTCCCGGTAATCCGTATTTGCC (site CGTGAGTCTGG) | 1.97
55 | CGTGAGTCATGGACCGGTTTTCCCGGTAATCCGTATTTGCG (site CGTGAGTCTCG) | 2.58
56 | CGTGCGGCATGGACCGGTTTTCCCGGTAATCCGTATTTGGA (site CGTGCGGCTTC) | 0.167
57 | CGTGCGTCATGGACCGGTTTTCCCGGTAATCCGTATTTGTA (site CGTGCGTCTTA) | 2.34
58 | CGTGGAACATGGACCGGTTTTCCCGGTAATCCGTATTTGGT (site CGTGGAACTAA) | 0.427
59 | CGTGGAACATGGACCGGTTTTCCCGGTAATCCGTATTTGGT (site CGTGGAACTAC) | 1.33
60 | CGTGGAACATGGACCGGTTTTCCCGGTAATCCGTATTTGGT (site CGTGGAACTAG) | 0
61 | CGTGGAACATGGACCGGTTTTCCCGGTAATCCGTATTTGGT (site CGTGGAACTAT) | 1.26
62 | CGTGGCACATGGACCGGTTTTCCCGGTAATCCGTATTTGTT (site CGTGGAACTAA) | 0.00865
63 | CGTGGCACATGGACCGGTTTTCCCGGTAATCCGTATTTGTT (site CGTGGCACTAA) | 0.862
64 | CGTGGCACATGGACCGGTTTTCCCGGTAATCCGTATTTGTT (site CGTGGGACTAA) | 0.00775
65 | CGTGGCACATGGACCGGTTTTCCCGGTAATCCGTATTTGTT (site CGTGGTACTAA) | 0.0209
66 | CGTGTAACATGGACCGGTTTTCCCGGTAATCCGTATTTGTT (site CGTGAAACTAA) | 0.00395
67 | CGTGTAACATGGACCGGTTTTCCCGGTAATCCGTATTTGTT (site CGTGCAACTAA) | 0.015
68 | CGTGTAACATGGACCGGTTTTCCCGGTAATCCGTATTTGTT (site CGTGGAACTAA) | 0.0109
69 | CGTGTAACATGGACCGGTTTTCCCGGTAATCCGTATTTGTT (site CGTGTAACTAA) | 0.811
70 | CGTTAAGCATGGACCGGTTTTCCCGGTAATCCGTATTTGGC (site CGTTAAGCTGC) | 1.73
71 | CGTTACCCATGGACCGGTTTTCCCGGTAATCCGTATTTGCG (site CGTTACCCTCG) | 0.477
72 | CGTTAGACATGGACCGGTTTTCCCGGTAATCCGTATTTGAT (site CGTTAGACTAT) | 1.58
73 | CGTTAGACATGGACCGGTTTTCCCGGTAATCCGTATTTGAT (site CGTTAGACTCT) | 0.00897
74 | CGTTAGACATGGACCGGTTTTCCCGGTAATCCGTATTTGAT (site CGTTAGACTGT) | 0
75 | CGTTAGACATGGACCGGTTTTCCCGGTAATCCGTATTTGAT (site CGTTAGACTTT) | 0.0167

— the supplement of paper PMC11208160
